2 compounds from patent US20090082368A1, “METHODS OF MODULATING NEUROTROPHIN-MEDIATED ACTIVITY” (PainCeptor Pharma Corporation, priority 2007, published 2009) can be followed below.

The structures appear in SMILES notation. pIC50: −log10 of the molar value. Like-named read-outs stand apart in the source and are kept apart here.

Assay [1] deals with NGF-induced ERK phosphorylation. The assay is described as follows: Inhibition of NGF-induced Erk 1/2 phosphorylation (pERK). It is filed as cell-based. The conditions noted are these: Rattus norvegicus, Table 2. Here is the method:
This assay is useful for establishing that the compounds of the invention are functional NGF antagonists, not receptor agonists (an agonist could conceivably block NGF binding but actually activate the receptor). Erk 1/2 is a kinase activated down stream of TrkA and is a well studied member of the NGF-induced signal transduction cascade.
PC12 cells expressing TrkA and p75 are acutely exposed to 1 ng/mL NGF (15 min; 37° C.; 5% CO2) that is pre-incubated (30 min; room temperature) with or without the compounds. Cells are lysed in Laemmli sample buffer (for SDS-PAGE) or a lysis buffer containing Triton X-100 (for ELISA). Following SDS-PAGE, proteins are electroblotted onto nitrocellulose and immunoprobed for phosphorylated Erk 1 and 2. Blocking and primary antibody incubations of immunoblots are performed in Tris-buffered saline-Tween (10 mM Tris, pH 8.0, 150 mM NaCl, and 0.2% Tween 20) supplemented with 5% (w/v) bovine serum albumin (BSA); secondary antibody incubations are performed in 5% (w/v) dried skim milk powder. Immunoreactive bands are detected by chemiluminescence.
A quantitative method to detect phosphorylated Erk 1/2 by immunofluorescence is also used. Neuroscreen-1 cells are grown in a 96 well plate. NGF preincubated with or without the compounds for 30 minutes, is added to the cells for 5 minutes at 37° C. Cells are then fixed and stained with an antibody against phosphor-ERK 1/2. A fluorescently labeled secondary antibody is used to show the presence of phosphorylated ERK 1/2. Quantitative results are generated by photographing the wells with light of the appropriate wavelength, followed by software based image analysis.

Assay [2] deals with spontaneous pain evoked by intraplantar injection of formalin in the rat. The assay is described as follows: Formalin model of acute tonic pain. It is filed as in vivo. Conditions: for pain intensity as evaluated by the licking behavior: s.c. 30 min prior to formalin, 2E 0.1-10 mg/kg, 1G 0.4-20 mg/kg, 47G 10-300 μmol/kg, 50G 30 and 100 μmol/kg. The protocol: Male Sprague-Dawley rats are housed together in groups of three animals under standard conditions with unrestricted access to food and water. All experiments are conducted according to the ethical guidelines for investigations of experimental pain in conscious animals (Zimmerman, 1983).
Assessment of formalin-induced flinching behavior in normal, uninjured rats (body weight 200-300 g) is made after formalin (2.5% in saline, 50-100 μl, s.c.) is injected into the plantar surface of the hindpaw using a 27G needle. Rats are pretreated with test compounds either administered intravenously (IV), by subcutaneous injection (SC) or by orally (PO).
Nociceptive behavior is determined manually every 5 min by measuring the amount of time spent in each of four behavioral categories: 0, treatment of the injected hindpaw is indistinguishable from that of the contralateral paw; 1, the injected paw has little or no weight placed on it; 2, the injected paw is elevated and is not in contact with any surface; 3, the injected paw is licked, bitten, or shaken. A weighted nociceptive score, ranging from 0 to 3 is calculated by multiplying the time spent in each category by the category weight, summing these products, and dividing by the total time for each 5 min block of time. (Coderre et al., Pain 1993; 54: 43). On the basis of the resulting response patterns, […] of nociceptive behavior are identified and scored: first phase (P1; 0-5 min), interphase (Int; 6-15 min), second phase (P2; […]), phase 2A (P2A; 16-40 min) and phase 2B (P2B; 41-60 min).
Statistical analysis is performed using the Prism™ 4.01 software package (GraphPad, San Diego, Calif., USA). The difference in response levels between treatment groups and control vehicle group is analyzed using an ANOVA followed by Bonferroni's method for post-hoc pair-wise comparisons. A p value<0.05 is considered to be significant.

In another assay the test system is PC12 cells. The assay is described as follows: Inhibition of NGF-induced neurite outgrowth. It is filed as cell-based. The conditions noted are these: Rattus norvegicus, PC-12, 96 h, Table 3, 4 days exposure to NGF. The protocol:
This assay is run as a further functional marker of NGF antagonism and takes advantage of the differentiation of PC12 cells (neurite outgrowth) induced by NGF. Cultures of PC12 cells are grown on Terasaki plates pre-coated with poly-D-lysine. Cells are exposed to NGF (1-50 (preferably 5) ng/ml) to induce neurite outgrowth as described elsewhere [LA Greene & AS Tischler, Establishment of a noradrenergic clonal line of rat adrenal pheochromocytoma cells which respond to nerve growth factor, Proc Natl Acad Sci USA. 1976 July; 73(7): 2424-2428]. In addition to NGF, cells are exposed to varying concentration of the compounds or vehicle. Following 4 days of exposure to NGF in the presence or absence of compound, neurite outgrowth is quantified. A neurite is scored if its caliber from origin to terminal is approximately the same and the length is equal to or greater than 1.5 the cell body diameter. The number of neurite bearing cells per total number of viable cells is calculated for each condition; the number of cells with neurites in the presence of NGF (without compound exposure) is considered to represent maximal (100%) outgrowth, to which the inhibitory effect of compounds of the invention on NGF-induced outgrowth is compared.

The subject of assay [3] is NGF receptors on PC12 cells (TrkA+p75). As to the kind of experiment: NGF binding (125I-NGF) using PC12 cells. Also on record: species or system rat. The protocol: NGF binding was evaluated using methods familiar to those who are skilled in the art. Briefly, cells expressing one or both NGF receptors (PC12: TrkA+p75; A875: p75 alone; HEK/CHO_trkA: TrkA alone) were harvested by replacing the medium with the cell dissociation buffer (Amersham) and incubating at 37° C. for 15 min. […] For most compounds, multiple dose-response curves were generated.
The IC50 data shown in Tables A-J were acquired using the procedure described herein using PC12 cells.

The subject of assay [4] is hyperalgesia from acute paw inflammation caused by intraplantar λ-carrageenan. As to the kind of experiment: Carrageenan model (inflammatory pain). In kind it is in vivo. Conditions: rat, SC 10 min pre- and 3 h post-carrageenan, tested 4 h post; 1G 20 mg/kg, 50G 2×105 mg/kg. The protocol:
Acute inflammatory hyperalgesia is induced in rats by unilateral injection of 150 μl of a 3% solution of λ-carrageenan into the plantar surface of the left hind paw 3-5 hours prior to testing. Thermal hyperalgesia, mechanical allodynia, mechanical hyperalgesia, weight bearing asymmetry and paw inflammation are determined. Rats are pretreated with test compounds either administered intravenously (IV), by subcutaneous injection (SC) or by oral gavage (PO). Thermal nociceptive thresholds are determined according to the method described elsewhere (Hargreaves et al., 1988). Briefly, through the glass surface, a radiant heat source (8V, 50 W projector bulb) is focused onto the plantar surface of the hind paw. The rat's paw-withdrawal latency to this stimulus is recorded to the nearest 0.1 s. Each latency score is an average of three trials, which are separated by at least 5 min. In all rats, both the injured and uninjured hind paws are similarly tested, allowing direct comparisons between inflamed and non-inflamed paws. Mechanical hyperalgesia is determined by measuring the difference of withdrawal thresholds in response to increasing pressure in the inflamed vs contralateral paw using the Randall-Sellito Paw pressure meter (IITC Life Science) (Randall L O and Sellito J J., 1957). Briefly, rats are held in a contention jacket suspended by a stand and allowed to acclimate for 10 min. […]

[5] abbreviates: Table 2, read-out: NGF Binding Assay IC50.
The mark [6] stands for this setting: Table J (Formula VIII), NGF binding, PC12 cells, read-out: IC50.

One may read the pIC50 as −log10 of the IC50, conventionally taken in molar units. The term ED50 denotes the dose at which the effect has come halfway, by size or by number of responders. For the compound `Cn1nnnc1-c1cc2c3c(cccc3c1)C(=O)N(CCCC(=O)O)C2=O` [Compound 47G, 4-[5-(1-Methyl-1H-tetrazol-5-yl)-1,3-dioxo-1H-benzo[de]isoquinolin-2(3H)-yl]butanoic acid], the pIC50 in assay [1] is 4.60 to 4.82; in the assay on PC12 cells, 5.30 to 7.00; in assay [3] (setting [5]), above 5.00; in assay [3] (Table 3, read-out: NGF Binding Assay IC50), above 5.00; in assay [3] (setting [6]), above 5.00. Moreover, the “pain intensity as evaluated by the licking behavior” value in assay [2] is reported as “dose-dependent reduction of the pain intensity”. In addition, the ED50 in assay [2] (sc, given 30 min prior to formalin injection, read-out: ED50, number of licking and biting episodes in phase IIa of the formalin test) is around 100 µmol/kg.

For the compound `O=C(O)CCCN1C(=O)c2cccc3cc(-n4cnnn4)cc(c23)C1=O` [Compound 50G, 4-[1,3-Dioxo-5-(1H-tetrazol-1-yl)-1H-benzo[de]isoquinolin-2(3H)-yl]butanoic acid], the pIC50 in assay [1] was 4.82 to 5.30; in assay [3] (setting [5]), above 5.00; in assay [3] (setting [6]) it was above 5.00. In addition, in assay [2], the “pain intensity as evaluated by the licking behavior” value is on record as “dose-dependent reduction of the pain intensity”. For the same compound, in assay [4], the “mechanical hyperalgesia (Randall-Sellito)” value is listed as “marginally improving the mechanical hyperalgesia”. Besides, the “thermal hyperalgesia (Hargreaves' assay)” value in assay [4] was “significantly reversed the thermal hyperalgesia”.
